Common to all, as to type: biochemical
Experiment [1] has as its target T1, purified mutant MGL (mut-MGLL 11-313 L179S L186S) (Homo sapiens, UniProt Q99685, L169S/L176S).
T1 construct: purified mutant MGL (mut-MGLL 11-313 L179S L186S)
T1 sequence (Q99685 1-303 L169S/L176S): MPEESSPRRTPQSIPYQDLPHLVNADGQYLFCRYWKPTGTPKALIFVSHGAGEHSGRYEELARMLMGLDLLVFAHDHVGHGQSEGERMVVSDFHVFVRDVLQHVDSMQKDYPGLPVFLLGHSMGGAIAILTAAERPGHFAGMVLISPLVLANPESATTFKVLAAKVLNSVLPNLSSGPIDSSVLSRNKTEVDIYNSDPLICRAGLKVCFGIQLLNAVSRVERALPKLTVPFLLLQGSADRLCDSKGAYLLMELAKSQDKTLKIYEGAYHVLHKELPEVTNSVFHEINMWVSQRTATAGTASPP
The experiment can be described thus: MGL enzyme activity assay (4MU-B cleavage), mutant MGL. The following applies: mutant MGL 5 nM, 4MU-B 10 μM, 37° C.; read-out: MGL mutant inh IC50. As to the method:
All rate-based assays were performed in black 384-well polypropylene PCR microplates (Abgene) in a total volume of 30 μL. Substrate 4-methylumbelliferyl butyrate (4MU-B; Sigma) and either purified mutant MGL (mut-MGLL 11-313 L179S L186S) or purified wild type MGL (wt-MGLL 6H-11-313) were diluted separately into 20 mM PIPES buffer (pH=7.0), containing 150 mM NaCl and 0.001% Tween 20. Compounds of Formula (I) were pre-dispensed (50 nL) into the assay plate using a Cartesian Hummingbird prior to adding 4MU-B (25 μL of 1.2× solution to a final concentration of 10 μM) followed by enzyme (5 μL of a 6× solution to a final concentration of 5 nM) to initiate the reaction. Final compound concentrations ranged from 17 to 0.0003 μM. The fluorescence change due to 4MU-B cleavage was monitored with excitation and emission wavelengths of 335 and 440 nm, respectively, and a bandwidth of 10 nm (Safire^2, Tecan) at 37° C. for 5 min.
The IC50 values for the following compounds were determined using Microsoft Office Excel from a fit of the equation to the concentration-response plot of the fractional activity as a function of inhibitor concentration.

The subject of experiment [2] is MGL (rat brain homogenate). The experiment can be described thus: 2-AG accumulation assay in rat brain homogenate. The following applies: compound 1 μM, percent of vehicle 2-AG accumulation. In short, it runs like this: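 Rat brain homogenate was incubated with compound for 15 min at 37° C., after which CaCl2 was added to a final concentration of 10 mM and incubation continued for 15 min at 37° C. in 5 mL total. Reactions were stopped with 6 mL of 2:1 chloroform/methanol, and 2-AG accumulated in the organic phase was quantified by HPLC/MS.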

Experiment [3] deals with T2, purified wild type MGL (wt-MGLL 6H-11-313) (Homo sapiens, UniProt Q99685).
T2 construct: purified wild type MGL (wt-MGLL 6H-11-313)
T2 sequence (Q99685 1-303): T1 sequence (Q99685 1-303 L169S/L176S) with S169L, S176L
Description: MGL enzyme activity assay (4MU-B cleavage), wild type MGL. The following applies: wild type MGL 5 nM, 4MU-B 10 μM, 37° C.; read-out: MGL wild type inh IC50. A digest of the protocol: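 Enzyme in 20 mM PIPES pH 7.0, 150 mM NaCl, 0.001% Tween 20 with 4MU-B at 10 μM final and MGL at 5 nM final; compounds 17 to 0.0003 μM final, enzyme added last. Fluorescence (ex 335/em 440 nm) followed at 37° C for 5 min; IC50 from fit of fractional activity versus inhibitor concentration.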

Experimental findings from patent US8748417B2, “Amino-pyrrolidine-azetidine diamides as monoacylglycerol lipase inhibitors” (Janssen Pharmaceutica, NV, priority 2010, dated 2014) are described below.

Residue numbers refer to the chain shown, from its start. Where only a bound is given, the exact number is not on record here.

The term IC50 denotes the midpoint of a concentration-inhibition curve.

With `O=C(c1ccc(-c2cccc(C(F)(F)F)c2)cc1)N1CC(N[C@@H]2CN(C(=O)c3ccccc3)C[C@H]2O)C1` (relative stereo) [Cpd 72, trans-1-(Phenylcarbonyl)-4-[(1-{[3′-(trifluoromethyl)biphenyl-4-yl]carbonyl}azetidin-3-yl)amino]pyrrolidin-3-ol], in experiment [1], the IC50 is 757 nM.
Turning to `O=C(c1ccc(-c2ccccc2)cc1)N1CC(N[C@@H]2CN(C(=O)c3ccccc3)C[C@H]2O)C1` (relative stereo) [Cpd 78, trans-4-{[1-(Biphenyl-4-ylcarbonyl)azetidin-3-yl]amino}-1-(phenylcarbonyl)pyrrolidin-3-ol], the IC50 in experiment [1] stood at 13400 nM.
Turning to `O=C(c1ccc(-c2ccccc2)cc1)N1CC(N[C@H]2CCN(C(=O)c3nccs3)C2)C1` [Cpd 1, (3S)-N-[1-(Biphenyl-4-ylcarbonyl)azetidin-3-yl]-1-(1,3-thiazol-2-ylcarbonyl)pyrrolidin-3-amine], the IC50 in experiment [1] came to 116 nM.
Regarding `O=C(c1ccc(-c2ccccc2)cc1)N1CC(N[C@H]2CCN(C(=O)c3ccccc3)C2)C1` [Cpd 2, (3S)-N-[1-(Biphenyl-4-ylcarbonyl)azetidin-3-yl]-1-(phenylcarbonyl)pyrrolidin-3-amine], in experiment [1], the IC50 was found to be 122 nM.
On to `O=C(c1ccc(Cc2ccccc2)cc1)N1CC(N[C@@H]2CCN(C(=O)c3nccs3)C2)C1` [Cpd 6, (3R)-N-{1-[(4-Benzylphenyl)carbonyl]azetidin-3-yl}-1-(1,3-thiazol-2-ylcarbonyl)pyrrolidin-3-amine], for which the IC50 in experiment [1] was 490 nM.
For `O=C(c1ccc(Cc2ccccc2)cc1)N1CC(N[C@@H]2CCN(C(=O)c3ccccc3)C2)C1` [Cpd 7, (3R)-N-{1-[(4-Benzylphenyl)carbonyl]azetidin-3-yl}-1-(phenylcarbonyl)pyrrolidin-3-amine], the IC50 in experiment [1] stood at 2060 nM.
For `O=C(c1ccccc1)N1CC[C@H](NC2CN(C(=O)c3sc4ccc(Cl)cc4c3C(F)(F)F)C2)C1` [Cpd 180, (3S)-N-(1-{[5-Chloro-3-(trifluoromethyl)-1-benzothiophen-2-yl]carbonyl}azetidin-3-yl)-1-(phenylcarbonyl)pyrrolidin-3-amine], the “Rat Brain 2AG % VehCntrl (%) @1 μM” value in experiment [2] is 333%. For the same molecule, in experiment [3], the IC50 was determined as 42.7 nM.
With `O=C(c1cscn1)N1CC[C@H](NC2CN(C(=O)c3sc4ccc(Cl)cc4c3C(F)(F)F)C2)C1` [Cpd 181, (3S)-N-(1-{[5-Chloro-3-(trifluoromethyl)-1-benzothiophen-2-yl]carbonyl}azetidin-3-yl)-1-(1,3-thiazol-4-ylcarbonyl)pyrrolidin-3-amine], in experiment [2], the “Rat Brain 2AG % VehCntrl (%) @1 μM” value is listed as 241%. Moreover, the IC50 in experiment [3] turned out to be 39.6 nM.
For `O=C(c1nccs1)N1CC[C@H](NC2CN(C(=O)c3sc4cc(Cl)ccc4c3C(F)(F)F)C2)C1` [Cpd 183, (3S)-N-(1-{[6-Chloro-3-(trifluoromethyl)-1-benzothiophen-2-yl]carbonyl}azetidin-3-yl)-1-(1,3-thiazol-2-ylcarbonyl)pyrrolidin-3-amine], in that order: 316% and 23.1 nM.
For the molecule `Cc1ccc2c(C(F)(F)F)c(C(=O)N3CC(N[C@H]4CCN(C(=O)c5nccs5)C4)C3)sc2c1` [Cpd 186, (3S)-N-(1-{[6-Methyl-3-(trifluoromethyl)-1-benzothiophen-2-yl]carbonyl}azetidin-3-yl)-1-(1,3-thiazol-2-ylcarbonyl)pyrrolidin-3-amine], in experiment [2], the “Rat Brain 2AG % VehCntrl (%) @1 μM” value was 563%. In experiment [3], the IC50 is 90.5 nM.
Taken in the same sequence, the figures for `O=C(c1ccc2c(-c3ccccc3)c[nH]c2c1)N1CC(N[C@H]2CCN(C(=O)c3nccs3)C2)C1` [Cpd 187, (3S)-N-{1-[(3-Phenyl-1H-indol-6-yl)carbonyl]azetidin-3-yl}-1-(1,3-thiazol-2-ylcarbonyl)pyrrolidin-3-amine] were 242% and under 5 nM.
As to `O=C(c1ccc2c(-c3ccccc3)c[nH]c2c1)N1CC(N[C@H]2CCN(C(=O)c3cscn3)C2)C1` [Cpd 188, (3S)-N-{1-[(3-Phenyl-1H-indol-6-yl)carbonyl]azetidin-3-yl}-1-(1,3-thiazol-4-ylcarbonyl)pyrrolidin-3-amine], the “Rat Brain 2AG % VehCntrl (%) @1 μM” value in experiment [2] is given as 140%. In addition, the IC50 in experiment [3] came out at 74.9 nM.
Consider `O=C(c1ccc2c(-c3ccc(F)cc3)c[nH]c2c1)N1CC(N[C@H]2CCN(C(=O)c3nccs3)C2)C1` [Cpd 189, (3S)-N-(1-{[3-(4-Fluorophenyl)-1H-indol-6-yl]carbonyl}azetidin-3-yl)-1-(1,3-thiazol-2-ylcarbonyl)pyrrolidin-3-amine], for which the “Rat Brain 2AG % VehCntrl (%) @1 μM” value in experiment [2] was determined as 277%. For the same molecule, the IC50 in experiment [3] was 12.5 nM.
Turning to `Cn1cc(-c2ccc(F)cc2)c2ccc(C(=O)N3CC(N[C@H]4CCN(C(=O)c5nccs5)C4)C3)cc21` [Cpd 192, (3S)-N-(1-{[3-(4-Fluorophenyl)-1-methyl-1H-indol-6-yl]carbonyl}azetidin-3-yl)-1-(1,3-thiazol-2-ylcarbonyl)pyrrolidin-3-amine], in experiment [2], the “Rat Brain 2AG % VehCntrl (%) @1 μM” value was 374%. In addition, the IC50 in experiment [3] was under 5 nM.
On to `Cn1cc(-c2ccc(F)cc2)c2ccc(C(=O)N3CC(N[C@H]4CCN(C(=O)c5cscn5)C4)C3)cc21` [Cpd 193, (3S)-N-(1-{[3-(4-Fluorophenyl)-1-methyl-1H-indol-6-yl]carbonyl}azetidin-3-yl)-1-(1,3-thiazol-4-ylcarbonyl)pyrrolidin-3-amine], for which the “Rat Brain 2AG % VehCntrl (%) @1 μM” value in experiment [2] was 219%. For the same molecule, the half-maximal inhibitory concentration (IC50) in experiment [3] was 19 nM.
For `Cn1cc(-c2ccc(F)cc2)c2ccc(C(=O)N3CC(N[C@H]4CCN(C(=O)c5ccccc5)C4)C3)cc21` [Cpd 194, (3S)-N-(1-{[3-(4-Fluorophenyl)-1-methyl-1H-indol-6-yl]carbonyl}azetidin-3-yl)-1-(phenylcarbonyl)pyrrolidin-3-amine], the “Rat Brain 2AG % VehCntrl (%) @1 μM” value in experiment [2] is 178%. In experiment [3], the IC50 came out at 44.9 nM.
Taken in the same sequence, the figures for `Cn1nc(-c2ccccc2)c2cc(C(=O)N3CC(N[C@H]4CCN(C(=O)c5nccs5)C4)C3)ccc21` [Cpd 195, (3S)-N-{1-[(1-Methyl-3-phenyl-1H-indazol-5-yl)carbonyl]azetidin-3-yl}-1-(1,3-thiazol-2-ylcarbonyl)pyrrolidin-3-amine] were 472% and 22.4 nM.
For `O=C(c1nccs1)N1CC[C@H](NC2CN(C(=O)c3ccc4c(ccn4-c4ccc(F)cc4)c3F)C2)C1` [Cpd 198, (3S)-N-(1-{[4-Fluoro-1-(4-fluorophenyl)-1H-indol-5-yl]carbonyl}azetidin-3-yl)-1-(1,3-thiazol-2-ylcarbonyl)pyrrolidin-3-amine], in that order: 937% and under 5 nM.
For the molecule `O=C(c1nccs1)N1CC[C@H](NC2CN(C(=O)c3sc4cc(-c5ccccc5)ccc4c3C(F)(F)F)C2)C1` [Cpd 208, (3S)-N-(1-{[6-Phenyl-3-(trifluoromethyl)-1-benzothiophen-2-yl]carbonyl}azetidin-3-yl)-1-(1,3-thiazol-2-ylcarbonyl)pyrrolidin-3-amine], the “Rat Brain 2AG % VehCntrl (%) @1 μM” value in experiment [2] is 359%. The IC50 in experiment [3] stood at 13.4 nM.
Take `O=C(c1nccs1)N1CC[C@H](NC2CN(C(=O)c3cc4ccn(-c5ccc(F)cc5)c4cc3F)C2)C1` [Cpd 212, (3S)-N-(1-{[6-Fluoro-1-(4-fluorophenyl)-1H-indol-5-yl]carbonyl}azetidin-3-yl)-1-(1,3-thiazol-2-ylcarbonyl)pyrrolidin-3-amine]: in experiment [2], the “Rat Brain 2AG % VehCntrl (%) @1 μM” value is on record as 582%. For the same molecule, in experiment [3], the 50% inhibitory concentration (IC50) was under 5 nM.
